Measured values: patent US20100062492A1, “Method For Preparing Icariside II, Cosmetic Composition Containing The Same and the Use Thereof For Skin Whitening” (Amorepacific Corporation, priority 2006, published 2010)

Tests used:
[1] = system: tyrosinase in human melanoma cell HM3KO cells; experiment: Effect on glycosylation of human melanoma cell tyrosinase (endoglycosidase H digestion, electrophoresis, immunodetection); type: cell-based; settings: HM3KO cells cultured to confluency with 0.05% sample; about 72 kD = normally glycosylated, about 60 kD = glycosylation inhibited
Description: In order to examine the effect of icariside II on the glycosylation of tyrosinase in human melanoma cells, the following test was carried out. First, human melanoma cell HM3KO cells (Y. Funasaka, Department of dermatology, Kobe university school of medicine, 5-1 Kusunoki-cho 7-chrome, Chuo-ku, Kobe 650, Japan) were cultured in a minimum essential medium (MEM), containing 10% bovine fetal serum, under conditions of 37° C. and 5% CO2. The cultured cells were placed in 75 cm^2 flasks at a cell density of 3×10^5 cells and left to stand overnight, such that the cells adhered to the flask wall. From the next day, the medium was replaced with a fresh medium, containing each of icariin icariside II of Example 1 and deoxynojirimycin in an amount of 0.05%. Herein, the deoxynojirimycin was used as a positive control group. The medium was replaced with a fresh medium containing each of the samples at a 1-2-day interval, and the cells were cultured to confluency in the flasks. When the cells reached confluency, the cells were collected, added to lysis buffer (2% CHAPS in 50 mM Hepes and 200 mM NaCl, pH 7.5, protease inhibitors) and ultrasonically disrupted. The disrupted cell solution was centrifuged at 4° C. and 12000 rpm for 10 minutes, unbroken cells and melanin were separated and removed, and only the supernatant was collected. Endoglycosidase H (125 units) was added to the supernatant (protein amount: […]), and the supernatant was subjected to an enzymatic reaction at 37° C. for 1 hour. Then, proteins in the supernatant were separated according to size by electrophoresis. Among the proteins separated by electrophoresis, tyrosinase could be observed by an immune reaction with an antibody. […]

[2] = system: alpha-glucosidase (Sigma); experiment: Test of alpha-glucosidase inhibitory effect; type: biochemical; settings: 0.01 ml of 10 mg/ml sample; 50 U/ml alpha-glucosidase; 5 mM p-nitrophenyl-α-D-glucopyranoside, 37° C., 5 minutes; absorbance at 405 nm; untreated group = 100.0
Description: In this regard, the deoxynojirimycin was used as a positive control group. Each of the samples was measured for absorbance at 405 nm to determine initial absorbance, and 0.05 ml of 5 mM p-nitrophenyl-α-D-glucopyranoside as a substrate was added thereto and subjected to an enzymatic reaction at 37° C. for 5 minutes. Then, each sample was measured for absorbance at 405 nm, and the enzyme activity inhibition thereof was calculated according to Math Figure 1. Alpha-glucosidase activity inhibition (%)=100−(absorbance of each test sample/absorbance of control group×100) [Math Figure 1]

human skin = experiment: Test of whitening effect on human skin after UVB-induced blackness; type: in vivo; settings: 1% solution in 1,3-butyleneglycol:ethanol=7:3 applied to UVB-irradiated upper arm of 12 healthy men, 10 weeks; ΔL* higher than about 1.5 = whitening effect
Source text: First, a perforated opaque tape having a diameter of 1.5 cm was attached to the upper arm of each of 12 healthy men. Then, UV rays (UVB) were irradiated to each of the subjects at a dose 1.5-2 times higher than the minimal erythema dose of each subject, thus inducing skin's blackness.
After the UV irradiation, each of a 1% solution of icariside (1,3-butyleneglycol:ethanol=7:3, as a vehicle), prepared in Example 1, a 1% solution of hydroquinone, a 1% solution of vehicle (negative control group), was applied to the skin of each subject. […] The skin color was measured with a colorimeter (Minolta, Japan) at a 1-week interval.
ΔL*=L* value at time point of completion of application−L* value at time point of start of application [Math Figure 2]

| Compound | size of tyrosinase after endoglycosidase H treatment (FIG. 1) [1] | Activity inhibition (%) [2] [%] | Lightless (ΔL*) of skin color (human skin) |
| --- | --- | --- | --- |
| OC[C@H]1NC[C@H](O)[C@@H](O)[C@@H]1O [Deoxynojirimycin, deoxynojirimycin, reference compound] | about 60 kD | 41.1 | – |
| COc1ccc(-c2oc3c(CC=C(C)C)c(O[C@@H]4O[C@H](CO)[C@@H](O)[C@H](O)[C@H]4O)cc(O)c3c(=O)c2O[C@@H]2O[C@@H](C)[C@H](O)[C@@H](O)[C@H]2O)cc1 [Icariin, icariin, reference compound] | about 72 kD | 98.8 | – |
| COc1ccc(-c2oc3c(CC=C(C)C)c(O)cc(O)c3c(=O)c2O[C@@H]2O[C@H](C)[C@@H](O)[C@H](O)[C@@H]2O)cc1 [Example 5, icariside II] | – | 37.8 | – |
| COc1ccc(-c2oc3c(CC=C(C)C)c(O)cc(O)c3c(=O)c2O[C@@H]2O[C@H](C)[C@@H](O)[C@H](O)[C@@H]2O)cc1 [Example 2, icariside II] | – | 38.8 | – |
| COc1ccc(-c2oc3c(CC=C(C)C)c(O)cc(O)c3c(=O)c2O[C@@H]2O[C@H](C)[C@@H](O)[C@H](O)[C@@H]2O)cc1 [Example 1, icariside II] | about 60 kD | 38.2 | 1.97 ± 0.25 |
| COc1ccc(-c2oc3c(CC=C(C)C)c(O)cc(O)c3c(=O)c2O[C@@H]2O[C@H](C)[C@@H](O)[C@H](O)[C@@H]2O)cc1 [Example 4, icariside II] | – | 37.9 | – |
| Oc1ccc(O)cc1 [Hydroquinone, hydroquinone, reference compound] | – | – | 1.90 ± 0.11 |
| COc1ccc(-c2oc3c(CC=C(C)C)c(O)cc(O)c3c(=O)c2O[C@@H]2O[C@H](C)[C@@H](O)[C@H](O)[C@@H]2O)cc1 [Example 3, icariside II] | – | 37.5 | – |
